Measured values as given in the NIST ThermoML archive (doi:10.1021/acs.jced.5b00613).
± gives the expanded uncertainty stated by the source.

Conditions: Liquid, Vibrating tube method

CCCCCCCCCC [decane]
mass density [kg/m3]
Conditions	100 kPa	1000 kPa	5000 kPa	10000 kPa	20000 kPa	30000 kPa	40000 kPa	50000 kPa	60000 kPa
278.15 K	741.6 ± 0.7	742.2 ± 0.7	745 ± 0.7	748.3 ± 0.7	754.4 ± 0.8	760.1 ± 0.8	765.4 ± 0.8	770.4 ± 0.9	775.3 ± 0.9
298.15 K	726.7 ± 0.7	727.4 ± 0.7	730.5 ± 0.7	734.2 ± 0.7	740.9 ± 0.8	747.2 ± 0.8	753 ± 0.8	758.4 ± 0.9	763.7 ± 0.9
323.15 K	707.4 ± 0.7	708.4 ± 0.7	711.9 ± 0.7	716.2 ± 0.8	724 ± 0.8	731.1 ± 0.8	737.5 ± 0.9	743.5 ± 0.9	749.2 ± 1
348.15 K	687.6 ± 0.8	688.6 ± 0.7	692.8 ± 0.7	697.7 ± 0.8	706.7 ± 0.8	714.6 ± 0.8	721.8 ± 0.9	728.4 ± 0.9	734.6 ± 1
373.15 K	667.1 ± 5	668.8 ± 3	673.8 ± 3	679.6 ± 3	689.8 ± 3	698.8 ± 3	706.8 ± 3.1	714.1 ± 3.1	720.8 ± 3.1
423.15 K	624.8 ± 5	627.2 ± 3	634.5 ± 3	642.4 ± 3	655.8 ± 3	667.1 ± 3	677 ± 3.1	685.9 ± 3.1	693.8 ± 3.1
463.15 K	–	590.4 ± 5	600.3 ± 3	610.8 ± 3	627.8 ± 3	641.4 ± 3.1	653.1 ± 3.1	663.3 ± 3.1	672.1 ± 3.1

CCCCCCCCCCCC [dodecane]
mass density [kg/m3]
Conditions	100 kPa	1000 kPa	5000 kPa	10000 kPa	20000 kPa	30000 kPa	40000 kPa	50000 kPa	60000 kPa
278.15 K	759.2 ± 0.7	760.5 ± 0.8	763.1 ± 0.7	766.2 ± 0.7	771.9 ± 0.8	777.3 ± 0.8	782.3 ± 0.8	787.1 ± 0.9	791.7 ± 0.9
298.15 K	745.6 ± 0.7	746.2 ± 0.7	749 ± 0.7	752.4 ± 0.7	758.7 ± 0.8	764.7 ± 0.8	770.1 ± 0.8	775.3 ± 0.9	780.2 ± 0.9
323.15 K	727.2 ± 0.7	728.2 ± 0.7	731.4 ± 0.7	735.3 ± 0.7	742.6 ± 0.8	749.2 ± 0.8	755.2 ± 0.8	760.9 ± 0.9	766.3 ± 0.9
348.15 K	708.7 ± 0.7	709.6 ± 0.7	713.4 ± 0.7	717.8 ± 0.8	726.1 ± 0.8	733.5 ± 0.8	740.2 ± 0.9	746.4 ± 0.9	752.3 ± 1
373.15 K	–	690.8 ± 3	695.2 ± 3	700.4 ± 3	709.8 ± 3	718.1 ± 3	725.6 ± 3	732.5 ± 3.1	738.9 ± 3.1
423.15 K	–	652.6 ± 3	658.7 ± 3	665.6 ± 3	677.6 ± 3	688 ± 3	697 ± 3.1	705.3 ± 3.1	712.8 ± 3.1
463.15 K	–	–	627.9 ± 3	636.9 ± 3	651.8 ± 3	664.2 ± 3.1	674.8 ± 3.1	684.1 ± 3.1	692.6 ± 3.1

CCCCCCCCCCCCCCCC [hexadecane]
mass density [kg/m3]
Conditions	100 kPa	1000 kPa	5000 kPa	10000 kPa	20000 kPa	30000 kPa	40000 kPa	50000 kPa	60000 kPa
298.15 K	770.5 ± 0.7	771.1 ± 0.7	773.6 ± 0.7	776.9 ± 0.7	782.6 ± 0.8	788.1 ± 0.8	–	–	–
323.15 K	753.1 ± 0.7	753.9 ± 0.7	756.8 ± 0.7	760.4 ± 0.7	766.9 ± 0.8	772.9 ± 0.8	778.5 ± 0.8	783.8 ± 0.9	788.7 ± 0.9
348.15 K	735.6 ± 0.7	736.5 ± 0.7	739.8 ± 0.7	743.8 ± 0.8	751.1 ± 0.8	757.8 ± 0.8	763.9 ± 0.9	769.7 ± 0.9	775.1 ± 0.9
373.15 K	717.8 ± 5	719.4 ± 3	723.2 ± 3	727.7 ± 3	735.9 ± 3	743.4 ± 3	750.3 ± 3	756.5 ± 3.1	762.4 ± 3.1
423.15 K	680.8 ± 5	684.1 ± 3	689.2 ± 3	695.1 ± 3	705.5 ± 3	714.7 ± 3	722.9 ± 3.1	730.4 ± 3.1	737.2 ± 3.1
463.15 K	651.6 ± 5	654.5 ± 5	661 ± 3	668.5 ± 3	681.2 ± 3	692 ± 3	701.4 ± 3.1	709.8 ± 3.1	717.5 ± 3.1

CCCCCC [hexane]
mass density [kg/m3]
Conditions	100 kPa	1000 kPa	5000 kPa	10000 kPa	20000 kPa	30000 kPa	40000 kPa	50000 kPa	60000 kPa
278.15 K	673.3 ± 0.7	673.9 ± 0.7	677.6 ± 0.8	681.8 ± 0.8	689.6 ± 0.8	696.8 ± 0.9	703.2 ± 0.9	709.2 ± 1	715 ± 1.1
298.15 K	656.1 ± 0.7	655.9 ± 0.7	660.1 ± 0.8	665.1 ± 0.8	673.9 ± 0.8	681.9 ± 0.9	689 ± 1	695.5 ± 1	701.7 ± 1.1
323.15 K	631.7 ± 0.8	633.1 ± 0.7	638.2 ± 0.8	644.2 ± 0.8	654.7 ± 0.8	663.9 ± 0.9	671.9 ± 1	679.3 ± 1	686.1 ± 1.1
348.15 K	–	608.5 ± 0.8	614.9 ± 0.8	622.1 ± 0.8	634.6 ± 0.9	645.2 ± 0.9	654.4 ± 1	662.6 ± 1.1	670.2 ± 1.1
373.15 K	–	582.6 ± 3	591 ± 3	600 ± 3	614.8 ± 3	627 ± 3.1	637.4 ± 3.1	646.6 ± 3.1	654.9 ± 3.1
423.15 K	–	521.2 ± 3.1	536.9 ± 3.1	551.5 ± 3	573.2 ± 3.1	589.7 ± 3.1	603.2 ± 3.1	614.6 ± 3.1	624.8 ± 3.2
463.15 K	–	–	484.2 ± 3.1	508.5 ± 3.1	538.9 ± 3.1	559.8 ± 3.1	575.9 ± 3.1	589.3 ± 3.2	600.7 ± 3.2
